Laboratory results published in PMC10654507, “A cleavable chimeric peptide with targeting and killing domains enhances LPS neutralization and antibacterial properties against multi-drug resistant E. coli” (Communications Biology, 2023).
Converted amounts (≈) assume the structure as drawn. Residues, ends and D or L forms follow the SMILES beside them.

How the values were obtained:
S. aureus CVCC546 = assay type: cell-based, Staphylococcus aureus; conditions: repeated three times; for MBC: lowest concentration giving 99.9% reduction of the inoculum; for MIC: microtiter broth dilution, 10^5 CFU/mL, 37 °C, 16 ~ 18 h
Experimental: (§1) The minimum inhibitory concentration (MIC) and minimum bactericidal concentration (MBC) of peptides were determined by the microtiter broth dilution method according to Clinical and Laboratory Standards Institute (CLSI) guidelines. […] PBS was used as the negative control. […] The MBC value was calculated as the lowest concentration of peptides resulting in a 99.9% reduction of the original inoculum. All experiments were repeated three times.

[1] = system: Staphylococcus aureus ATCC43300; assay type: cell-based; conditions: repeated three times; for MBC: lowest concentration giving 99.9% reduction of the inoculum; for MIC: microtiter broth dilution, 10^5 CFU/mL, 37 °C, 16 ~ 18 h
Experimental: as §1

Escherichia coli CVCC195 = assay type: cell-based; conditions: repeated three times; for MBC: lowest concentration giving 99.9% reduction of the inoculum; for MIC: microtiter broth dilution, 10^5 CFU/mL, 37 °C, 16 ~ 18 h
Experimental: as §1

MDR E. coli CVCC195 [2] = experiment: Mouse survival, preventive treatment before MDR E. coli challenge; assay type: in vivo; conditions: 7 μmol/kg i.p. at 0 h, MDR E. coli CVCC195 0.5 × 10^9 CFU/mouse i.p. at 6 h; five mice/group
Experimental: (§2) A sepsis mouse model established in our laboratory was used to evaluate the prevention effect of peptides. […] The survival rate of mice was recorded for 7 days. The mice injected with saline were used as negative control.

LPS [3] = experiment: Mouse survival, preventive treatment before lethal LPS challenge; assay type: in vivo; parameters: key to survival of mice, single-animal event: 1 represents a mouse death; 0 represents no death; conditions: for mouse survival at 7 days: 7 μmol/kg i.p. at 0 h, LPS 13.5 mg/kg i.p. at 6 h, five mice/group; for survival of mice, single-animal event: Fig. 7a source data, LPS challenge
Experimental: as §2

MDR E. coli CVCC195 [4] = experiment: Infiltrated inflammatory cells in lung sections, E. coli-challenged mice; assay type: in vivo, mouse; conditions: Fig. 6c source data, peptide + E. coli, mean
Experimental: (§3) Fig. 6 Effects of cleavable chimeric peptide R7 on lung injury in mice. […] Lung injury was analyzed histologically at 12 h or 24 h. a Histopathological images of lung sections after staining with hematoxylin and eosin (H&E). Images are presented at a magnification of 100×. b Pathological analysis of lung. Lung injury involves in inflammation (such as peribronchial, perivascular, intrabronchial, and pulmonary interstitial one), bronchial exudate, and alveolar septal thickening, respectively. The specific degree of lung injury of each mouse is assessed by Score 0 (asymptomatic), Score 1 (mild), Score 2 (moderate), and Score 3 (severe), respectively. c The number of counted infiltrated inflammatory cells within processed lung sections from a. Data represent the mean ± SD of three independent experiments. Different lower-case letters indicate a significant difference between the two groups (p < 0.05).
(§4) Lung tissues were taken at 12 h and 24 h, respectively, washed with PBS, and fixed in 4% paraformaldehyde overnight. After dehydration in different concentrations of ethanol (including 75%, 85%, 90%, and 95%, respectively), the tissues were embedded in paraffin, sliced, and stained with hematoxylin. Observation was performed under a light microscope. The mice only injected with E. coli, LPS or PBS was regard as the negative or blank control.

MDR E. coli CVCC195 [5] = experiment: Serum cytokines (TNF-α, IL-6, IL-1β, IL-10; ELISA) in E. coli-challenged mice; assay type: in vivo, mouse; parameters: unit not given beside the values; conditions: Fig. 5c-f source data, peptide + E. coli challenged mice, mean
Experimental: After E. coli or LPS challenge, the mice were sacrificed at 12 h and 24 h, respectively, and the sera were collected to detect inflammatory cytokines (such as tumor necrosis factor-α (TNF-α), interleukin-6 (IL-6), interleukin-1β (IL-1β), and interleukin-10 (IL-10)) using the enzyme linked immunosorbent assay (ELISA) kits. To evaluate the specific activity of intestinal alkaline phosphatase (IAP), a 2 cm segment of duodenum was rapidly intercepted from the mice and homogenized; the IAP levels in the supernatant were detected by ELISA. In addition, the lungs were collected from the mice infected by E. coli after 12 and 24 h, respectively and were homogenized in sterile PBS for the bacterial counts assay.

mouse red blood cells = experiment: Hemolytic activity; assay type: cell-based
Experimental: Blood was collected from the eyeballs of specific pathogen-free (SPF) ICR female mice (6-week-old) with an anticoagulant tube and centrifuged for 10 min (4 °C, 1500 rpm). After washing twice with 0.9% physiological saline, red blood cells were diluted to 8% suspension and added into the Eppendorf tube (100 μL); 2-fold peptide solutions dissolved in 0.9% physiological saline (100 μL) were then added into the tube, incubated at 37 °C for 1 h, and centrifugated at 4 °C for 5 min. The supernatant was pipetted into a 96-well plate and the UV absorbance was measured at 540 nm using a microplate reader. 0.1% Triton X-100 and physiological saline were used as positive and negative control, respectively. The hemolysis rate is calculated as follows: Hemolysis (%) = [(Abspeptide-Abssaline) / (Abs0.1% Triton X-100- Abssaline)] × 100[13].

LPS [6] = experiment: Lung injury score (H&E histology), LPS-challenged mice; assay type: in vivo, mouse; conditions: 7 μmol/kg pre-treatment, 24 h (implied by contrast with 12 h)
Experimental: as §3, with “8” for “6”, “h, respectively.” for “h.”, “(a).” for “a.”
as §4

[7] = event at day 2, one cell per mouse
[8] = event at day 7, one cell per entry
[9] = concentration 1 μg/ml (as headed), 37 °C, 1 h, absorbance 540 nm, 0.1% Triton X-100 = 100, mean, n = 3
[10] = concentration 2 μg/ml (as headed), 37 °C, 1 h, absorbance 540 nm, mean, n = 3
[11] = concentration 4 μg/ml (as headed), 37 °C, 1 h, absorbance 540 nm, mean, n = 3
[12] = concentration 8 μg/ml (as headed), 37 °C, 1 h, absorbance 540 nm, mean, n = 3
[13] = concentration 16 μg/ml (as headed), 37 °C, 1 h, absorbance 540 nm, mean, n = 3
[14] = concentration 32 μg/ml (as headed), 37 °C, 1 h, absorbance 540 nm, mean, n = 3
[15] = concentration 64 μg/ml (as headed), 37 °C, 1 h, absorbance 540 nm, mean, n = 3
[16] = concentration 128 μg/ml (as headed), 37 °C, 1 h, absorbance 540 nm, mean, n = 3

`CSCC[C@H](NC(=O)[C@H](CCCNC(=N)N)NC(=O)[C@H](Cc1c[nH]c2ccccc12)NC(=O)[C@H](C)NC(=O)[C@H](Cc1c[nH]c2ccccc12)NC(=O)[C@H](CCCNC(=N)N)NC(=O)[C@H](Cc1c[nH]c2ccccc12)NC(=O)[C@H](C)NC(=O)[C@H](CCCCN)NC(=O)[C@H](Cc1ccccc1)NC(=O)[C@H](CCCNC(=N)N)NC(=O)[C@H](CCCNC(=N)N)NC(=O)[C@H](CCCCN)NC(=O)[C@H](CCCNC(=N)N)NC(=O)[C@H](CCCCN)NC(=O)[C@H](Cc1ccccc1)NC(=O)[C@H](Cc1ccccc1)NC(=O)[C@H](CO)NC(=O)[C@H](C)NC(=O)[C@H](CCCNC(=N)N)NC(=O)[C@@H](NC(=O)[C@H](CCCCN)NC(=O)[C@H](Cc1c[nH]c2ccccc12)NC(=O)[C@H](CCCNC(=N)N)NC(=O)CNC(=O)[C@H](CCC(N)=O)NC(=O)[C@@H](NC(=O)[C@@H](N)CCCNC(=N)N)C(C)C)C(C)C)C(=O)N[C@@H](CCCCN)C(=O)N[C@@H](CCCCN)C(=O)N[C@@H](CC(C)C)C(=O)N[C@@H](C)C(=O)N[C@@H](C)C(=O)N1CCC[C@H]1C(=O)N[C@@H](CO)C(=O)O` [R7] (H-RVQGRWKVRASFFKRKRRFKAWRWAWRMKKLAAPS-OH) showed an MBC (S. aureus CVCC546) of 2.26 µM (≈ 10.1 µg/mL), an MIC (S. aureus CVCC546) of 2.26 µM (≈ 10.1 µg/mL) and an MBC [1] of 2.26 µM (≈ 10.1 µg/mL). For the same molecule, the MIC [1] was 2.26 µM (≈ 10.1 µg/mL), the MBC (Escherichia coli CVCC195) was 1.13 µM (≈ 5.06 µg/mL) and the MIC (Escherichia coli CVCC195) was 1.13 µM (≈ 5.06 µg/mL). The “mouse survival at 7 days” value (MDR E. coli CVCC195 [2]) was 100%, the “mouse survival at 7 days” value (LPS [3]) was 100% and the “survival of mice, single-animal event” value (LPS [3]; [7]) was 0. For the same molecule, the “survival of mice, single-animal event” value (LPS [3]; [8]) was 0, the “number of counted infiltrated inflammatory cells” value (shortened to “number”) (MDR E. coli CVCC195 [4]; 12 h) was 14.3787 and the “number” value (MDR E. coli CVCC195 [4]; 24 h) was 11.7743. The TNFα (MDR E. coli CVCC195 [5]; 12 h) was 51.956, the TNFα (MDR E. coli CVCC195 [5]; 24 h) was 49.098 and the Hemolysis (mouse red blood cells; [9]) was -0.4331%. The Hemolysis (mouse red blood cells; [10]) was -0.2475%, the Hemolysis (mouse red blood cells; [11]) was -0.2475% and the Hemolysis (mouse red blood cells; [12]) was -0.1031%. The Hemolysis (mouse red blood cells; [13]) was 0.495%, the Hemolysis (mouse red blood cells; [14]) was 2.846% and the Hemolysis (mouse red blood cells; [15]) was 6.991%. For the same molecule, the Hemolysis (mouse red blood cells; [16]) was 10.9301%, the Hemolysis (mouse red blood cells; low concentration (0 ~ 32 μM)) was “no hemolysis” and the lung injury score (LPS [6]) was 3.0 points.

For `CSCC[C@H](NC(=O)[C@H](CCCNC(=N)N)NC(=O)[C@H](Cc1c[nH]c2ccccc12)NC(=O)[C@H](C)NC(=O)[C@H](Cc1c[nH]c2ccccc12)NC(=O)[C@H](CCCNC(=N)N)NC(=O)[C@H](Cc1c[nH]c2ccccc12)NC(=O)[C@H](C)NC(=O)[C@H](CCCCN)NC(=O)[C@@H](N)Cc1ccccc1)C(=O)N[C@@H](CCCCN)C(=O)N[C@@H](CCCCN)C(=O)N[C@@H](CC(C)C)C(=O)N[C@@H](C)C(=O)N[C@@H](C)C(=O)N1CCC[C@H]1C(=O)N[C@@H](CO)C(=O)O` [L7] (H-FKAWRWAWRMKKLAAPS-OH), the MBC (S. aureus CVCC546) was 36.2 µM (≈ 77.2 µg/mL), the MIC (S. aureus CVCC546) was 18.1 µM (≈ 38.6 µg/mL) and the MBC [1] was 18.1 µM (≈ 38.6 µg/mL). The MIC [1] was 18.1 µM (≈ 38.6 µg/mL), the MBC (Escherichia coli CVCC195) was 4.53 µM (≈ 9.67 µg/mL) and the MIC (Escherichia coli CVCC195) was 2.26 µM (≈ 4.82 µg/mL). The “mouse survival at 7 days” value (MDR E. coli CVCC195 [2]) was 60%, the “mouse survival at 7 days” value (LPS [3]) was 40% and the “survival of mice, single-animal event” value (LPS [3]; [7]) was 1. For the same molecule, the “survival of mice, single-animal event” value (LPS [3]; [8]) was 0, the “number” value (MDR E. coli CVCC195 [4]; 12 h) was 32.847 and the “number” value (MDR E. coli CVCC195 [4]; 24 h) was 26.4133. The TNFα (MDR E. coli CVCC195 [5]; 12 h) was 75.496, the TNFα (MDR E. coli CVCC195 [5]; 24 h) was 66.872 and the “hemolysis against mouse red blood cells” value (mouse red blood cells; 128 μM) was 0%. For the same molecule, the Hemolysis (mouse red blood cells; [9]) was -0.1237%, the Hemolysis (mouse red blood cells; [10]) was 0.165% and the Hemolysis (mouse red blood cells; [11]) was -0.1856%. The Hemolysis (mouse red blood cells; [12]) was -0.6393%, the Hemolysis (mouse red blood cells; [13]) was 0.04126% and the Hemolysis (mouse red blood cells; [14]) was -0.3506%. The Hemolysis (mouse red blood cells; [15]) was -0.6805%, the Hemolysis (mouse red blood cells; [16]) was -1.031% and the Hemolysis (mouse red blood cells; low concentration (0 ~ 32 μM)) was “no hemolysis”. The lung injury score (LPS [6]) was 6.3 points.
